Test results taken from PMC6814738, “Bacterial MgrB peptide activates chemoreceptor Fpr3 in mouse accessory olfactory system and drives avoidance behaviour” (Nature Communications, 2019).
Peptide text beside a SMILES is read from it. * marks the point of attachment. For = O=C*

Tests used:
Fpr3-expressing VSNs [1] = experiment: Egr1 induction in Fpr3-positive VSNs after oronasal peptide application, RNAscope (Fig. 7c, e); format: in vivo, mouse; conditions: 100 µM, male B6 mice
Experimental: (§1) For each mouse, serial coronal VNO cryosections (12 µm) were collected as two alternate sets, each representing every second section of the whole VNO. One set was subjected to RNAscope in situ hybridisation using the RNAscope Fluorescent Multiplex Detection Kit (ACD Bio-Techne) and specific probes for Fpr3 and LacZ according to the manufacturer’s protocol. Sections were incubated in 1 x citrate buffer pH 6.0 (DAKO, Germany) for 5 min at 98 °C in a coplin jar, rinsed twice in distilled water, dehydrated in 100% ethanol, and air dried prior to protease III treatment for 30 min at 40 °C. After rinsing in distilled water, sections were simultaneously hybridised with RNA scope target probes generated for mouse Fpr3 and E.coli LacZ (ACD Bio-Techne). The Fpr3 probe was designed as channel 1 probe containing 7 ZZ structures targeting base pairs 456–1143 of NM_008042.2, specific to mouse Fpr3. The LacZ probe, designed as channel 3 probe contains 30 ZZ structures targeting the region 279–1790 bp of KC847299.1 (cat# 313451-C3). […] Following hybridisation (2 h, 40 °C), sections were rinsed twice for 2 min in wash buffer (ACD Bio-Techne), and sequentially treated with amplification solutions at 40 °C (30 min Amp1-FL, 15 min Amp2-FL, 30 min Amp3-FL) and fluorescence reagent (15 min, 40 °C Amp4-altC), with intermitting washing steps at room temperature between reagents. Cell nuclei were stained with DAPI solution (ACD Bio-Techne) for 1 min, and tissue sections were mounted with DAKO fluorescence medium and stored for 12 h at 4 °C. Fluorescence images of the RNAscope results were acquired from each section using a Zeiss LSM 880 confocal microscope containing a 32-channel GaAsP-PMT and 2-channel PMT QUASAR detector.
We stimulated adult male B6 mice with f-MKKFRW (100 µM) and performed double-labelling RNAscope in situ hybridisation for Fpr3 and the immediate early gene Egr1 on VNO tissue sections. […] VNO tissue was prepared for RNAscope fluorescence in situ hybridisation as described above using Fpr3 and Egr1 probes simultaneously. […]

Fpr3-expressing VSNs [2] = experiment: Egr1 induction in Fpr3-positive VSNs after voluntary peptide uptake in freely behaving mice, RNAscope (Fig. 7d, f); format: in vivo, mouse; conditions: male B6 mice
Experimental: as §1, with “°C.” for “°C. After rinsing in distilled water, sections were simultaneously hybridised with RNA scope target probes generated for mouse Fpr3 and E.coli LacZ (ACD Bio-Techne). The Fpr3 probe was designed as channel 1 probe containing 7 ZZ structures targeting base pairs 456–1143 of NM_008042.2, specific to mouse Fpr3. The LacZ probe, designed as channel 3 probe contains 30 ZZ structures targeting the region 279–1790 bp of KC847299.1 (cat# 313451-C3).”, “detector. […]” for “detector.”

CSCC[C@H](NC=O)C(=O)N[C@@H](CCCCN)C(=O)N[C@@H](CCCCN)C(=O)N[C@@H](Cc1ccccc1)C(=O)N[C@@H](CCCNC(=N)N)C(=O)N[C@@H](Cc1c[nH]c2ccccc12)C(=O)O [f-MKKFRW] (For-MKKFRW-OH)
Egr1-positive / Fpr3-positive VSNs (Fpr3-expressing VSNs [1]; oronasal): 145/317 | fraction of Fpr3-positive VSNs co-localised with Egr1 (Fpr3-expressing VSNs [1]; oronasal, mean ± s.d.): 0.46 ± 0.11 | Egr1 induction in Fpr3-positive VSNs (Fpr3-expressing VSNs [1]; oronasal or voluntary uptake, both types of experiments): ~ 50% | fraction of Fpr3-positive VSNs co-localised with Egr1 (Fpr3-expressing VSNs [2]; 100 µM in 50% FEU, mean ± s.d.): 0.46 ± 0.12 | Egr1-positive / Fpr3-positive VSNs (Fpr3-expressing VSNs [2]; 100 µM): 77/160
